# Laboratory results taken from PMC10176470, “Engaging a Non-catalytic Cysteine Residue Drives Potent and Selective Inhibition of Caspase-6” (Journal of the American Chemical Society, 2023).
# Legend:
# Test in all cases: SILAC proteomics / in-gel fluorescence, competition of probe 13-t labeling by 3a
# [1] = target: T1, proteins of HEK293T cells transiently overexpressing caspase-6 (Homo sapiens, UniProt O00410)
# T1 sequence (O00410 1-1097): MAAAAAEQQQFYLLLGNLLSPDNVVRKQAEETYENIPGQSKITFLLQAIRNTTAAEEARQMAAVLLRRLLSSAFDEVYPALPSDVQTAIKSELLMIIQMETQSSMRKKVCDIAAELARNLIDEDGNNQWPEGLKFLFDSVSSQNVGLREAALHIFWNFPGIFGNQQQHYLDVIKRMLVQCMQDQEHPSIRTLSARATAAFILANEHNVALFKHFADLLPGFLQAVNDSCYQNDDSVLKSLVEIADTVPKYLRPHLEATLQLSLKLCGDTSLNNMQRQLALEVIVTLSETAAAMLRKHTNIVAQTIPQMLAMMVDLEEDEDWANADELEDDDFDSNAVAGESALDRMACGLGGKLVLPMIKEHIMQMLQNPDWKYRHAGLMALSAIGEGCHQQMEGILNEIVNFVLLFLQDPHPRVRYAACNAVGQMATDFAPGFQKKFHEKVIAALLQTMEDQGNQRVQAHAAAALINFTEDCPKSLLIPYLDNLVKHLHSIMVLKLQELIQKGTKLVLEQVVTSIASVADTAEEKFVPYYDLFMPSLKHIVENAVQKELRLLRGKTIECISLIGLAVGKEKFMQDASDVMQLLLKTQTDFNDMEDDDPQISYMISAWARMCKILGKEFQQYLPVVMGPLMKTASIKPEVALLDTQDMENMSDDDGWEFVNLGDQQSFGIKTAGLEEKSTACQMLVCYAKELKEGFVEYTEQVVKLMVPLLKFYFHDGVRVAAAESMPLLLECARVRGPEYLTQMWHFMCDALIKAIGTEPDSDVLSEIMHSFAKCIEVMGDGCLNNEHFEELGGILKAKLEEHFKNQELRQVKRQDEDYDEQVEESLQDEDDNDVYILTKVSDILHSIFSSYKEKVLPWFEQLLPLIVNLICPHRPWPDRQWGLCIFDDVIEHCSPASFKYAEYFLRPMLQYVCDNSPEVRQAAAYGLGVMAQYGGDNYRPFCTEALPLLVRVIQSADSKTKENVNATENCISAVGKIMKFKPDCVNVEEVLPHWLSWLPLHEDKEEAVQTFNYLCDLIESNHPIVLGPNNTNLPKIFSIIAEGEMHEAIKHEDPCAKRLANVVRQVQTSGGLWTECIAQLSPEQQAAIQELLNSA
# [2] = target: proteins of HEK293T cells transiently overexpressing caspase-6 (Homo sapiens, UniProt P35998); conditions: Comp; protein PSMC2 P35998
# Chain of proteins of HEK293T cells transiently overexpressing caspase-6 (Homo sapiens, UniProt P35998) (P35998 whole entry): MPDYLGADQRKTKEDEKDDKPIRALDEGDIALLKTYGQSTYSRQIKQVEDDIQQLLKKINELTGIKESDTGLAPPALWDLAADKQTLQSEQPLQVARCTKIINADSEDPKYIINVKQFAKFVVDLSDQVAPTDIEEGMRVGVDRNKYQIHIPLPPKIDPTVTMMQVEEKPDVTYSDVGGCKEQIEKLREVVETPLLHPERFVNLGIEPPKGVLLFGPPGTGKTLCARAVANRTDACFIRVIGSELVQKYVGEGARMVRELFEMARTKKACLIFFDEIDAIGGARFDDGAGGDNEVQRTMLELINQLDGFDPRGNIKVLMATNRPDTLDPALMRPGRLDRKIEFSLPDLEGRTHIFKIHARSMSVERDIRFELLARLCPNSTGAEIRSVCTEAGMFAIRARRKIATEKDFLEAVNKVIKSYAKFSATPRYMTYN
# [3] = target: proteins of HEK293T cells transiently overexpressing caspase-6 (Homo sapiens, UniProt P39023); conditions: Comp; protein RPL3 P39023
# [4] = target: T2, proteins of HEK293T cells transiently overexpressing caspase-6 (Homo sapiens, UniProt P50990); conditions: Comp; protein CCT8 P50990
# T2 sequence (P50990 1-548): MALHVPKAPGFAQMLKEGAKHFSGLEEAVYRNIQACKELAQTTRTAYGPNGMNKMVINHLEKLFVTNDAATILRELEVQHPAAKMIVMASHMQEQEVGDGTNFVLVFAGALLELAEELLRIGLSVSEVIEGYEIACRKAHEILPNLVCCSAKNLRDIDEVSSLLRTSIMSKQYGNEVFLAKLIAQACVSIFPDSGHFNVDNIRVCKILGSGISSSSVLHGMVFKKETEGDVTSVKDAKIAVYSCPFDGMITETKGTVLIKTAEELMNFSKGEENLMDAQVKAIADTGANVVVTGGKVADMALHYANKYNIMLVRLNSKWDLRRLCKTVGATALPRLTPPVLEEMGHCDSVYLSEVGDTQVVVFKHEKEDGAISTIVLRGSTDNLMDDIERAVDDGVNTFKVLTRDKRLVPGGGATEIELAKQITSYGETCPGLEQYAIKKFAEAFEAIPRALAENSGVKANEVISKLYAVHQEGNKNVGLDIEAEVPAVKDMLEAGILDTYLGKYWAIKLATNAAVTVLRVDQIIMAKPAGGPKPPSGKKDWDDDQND
# [5] = target: proteins of HEK293T cells transiently overexpressing caspase-6 (Homo sapiens, UniProt P62241); conditions: Comp; protein RPS8 P62241
# [6] = target: proteins of HEK293T cells transiently overexpressing caspase-6 (Homo sapiens, UniProt Q12905); conditions: Comp; protein ILF2 Q12905
# Chain of proteins of HEK293T cells transiently overexpressing caspase-6 (Homo sapiens, UniProt Q12905) (Q12905 whole entry): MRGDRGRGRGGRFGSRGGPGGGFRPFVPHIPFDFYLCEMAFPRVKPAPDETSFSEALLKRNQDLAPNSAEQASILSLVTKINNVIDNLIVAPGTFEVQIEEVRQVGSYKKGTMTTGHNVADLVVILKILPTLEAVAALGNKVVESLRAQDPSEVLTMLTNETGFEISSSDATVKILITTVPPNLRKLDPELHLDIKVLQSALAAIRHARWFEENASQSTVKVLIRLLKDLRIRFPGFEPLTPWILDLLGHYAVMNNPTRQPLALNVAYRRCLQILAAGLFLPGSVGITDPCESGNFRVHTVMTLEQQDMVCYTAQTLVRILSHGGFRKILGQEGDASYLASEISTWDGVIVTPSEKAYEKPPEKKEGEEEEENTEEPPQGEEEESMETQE
# [7] = target: proteins of HEK293T cells transiently overexpressing caspase-6 (Homo sapiens, UniProt Q13151); conditions: Comp; protein HNRNPA0 Q13151
# Chain of proteins of HEK293T cells transiently overexpressing caspase-6 (Homo sapiens, UniProt Q13151) (Q13151 whole entry): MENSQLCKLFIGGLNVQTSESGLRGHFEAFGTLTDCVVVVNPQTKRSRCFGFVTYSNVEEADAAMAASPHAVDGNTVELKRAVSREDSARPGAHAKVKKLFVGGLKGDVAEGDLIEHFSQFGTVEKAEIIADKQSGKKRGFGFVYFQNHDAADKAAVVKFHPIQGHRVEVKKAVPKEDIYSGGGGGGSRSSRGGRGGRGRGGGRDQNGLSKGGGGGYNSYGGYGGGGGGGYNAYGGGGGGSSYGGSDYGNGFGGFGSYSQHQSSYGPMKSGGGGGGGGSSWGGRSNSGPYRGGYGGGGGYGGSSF
# [8] = protein IPO5 (O00410), Exp Comp, analysis C6, p 0.0039, 9 peptides
smiles,measurement,setting,value
C=CS(=O)(=O)N1C[C@H](C(=O)Nc2ccc(OC(F)(F)F)cc2)C[C@@H](c2ccccc2)C1 [3a],enrich.exp.med,"[1]; Comp, protein IPO5 O00410",1
same,enrich.exp.med.lin,[1]; [8],2
same,enrich.exp.med.log2,[1]; [8],1
same,enrich.exp.med,[2],0.924
same,enrich.exp.med,[3],0.8762
same,enrich.exp.med,[4],0.6038
same,enrich.exp.med,[5],0.6264
same,enrich.exp.med,[6],0.7326
same,enrich.exp.med,[7],0.7909
